Series [1] in a line: Dissociation constant, pKa of the compound. The series is classed as physicochemical.
Series [2] concerns the target Glutamate receptor ionotropic, NMDA 2B (Rattus norvegicus, UniProt Q00960). The series can be described thus: Displacement of [3H]ifenprodil from NMDA receptor GluN2B subunit in Wistar rat cerebral cortex after 120 mins. Format: tissue-based. (In general: In a radioligand displacement assay an active substance lowers the binding of a labelled ligand.)
Series [3] deals with Glutamate receptor ionotropic, NMDA 2B (Rattus norvegicus) (UniProt Q00960). As to the kind of experiment: Antagonist activity at NMDA receptor GluN2B subunit in Wistar rat CA1 pyramidal neurons assessed as decrease in EPSC amplitude at holding potential of -60 mV at 100 nM measured at 5 mins by patch clamp electrophysiological assay in presence of Mg2+ free ACSF containing CNQX, glycine, bicuculline relative to control. Format: functional, cell-based. To be noted: Pyramidal neuron. Set-up: scale not given: the % may be the effect or the level left. (In general: In patch-clamp work, channel activity is measured electrically.)
Glutamate receptor ionotropic, NMDA 2B (Rattus norvegicus), sequence (Q00960 27-1482 limits assumed): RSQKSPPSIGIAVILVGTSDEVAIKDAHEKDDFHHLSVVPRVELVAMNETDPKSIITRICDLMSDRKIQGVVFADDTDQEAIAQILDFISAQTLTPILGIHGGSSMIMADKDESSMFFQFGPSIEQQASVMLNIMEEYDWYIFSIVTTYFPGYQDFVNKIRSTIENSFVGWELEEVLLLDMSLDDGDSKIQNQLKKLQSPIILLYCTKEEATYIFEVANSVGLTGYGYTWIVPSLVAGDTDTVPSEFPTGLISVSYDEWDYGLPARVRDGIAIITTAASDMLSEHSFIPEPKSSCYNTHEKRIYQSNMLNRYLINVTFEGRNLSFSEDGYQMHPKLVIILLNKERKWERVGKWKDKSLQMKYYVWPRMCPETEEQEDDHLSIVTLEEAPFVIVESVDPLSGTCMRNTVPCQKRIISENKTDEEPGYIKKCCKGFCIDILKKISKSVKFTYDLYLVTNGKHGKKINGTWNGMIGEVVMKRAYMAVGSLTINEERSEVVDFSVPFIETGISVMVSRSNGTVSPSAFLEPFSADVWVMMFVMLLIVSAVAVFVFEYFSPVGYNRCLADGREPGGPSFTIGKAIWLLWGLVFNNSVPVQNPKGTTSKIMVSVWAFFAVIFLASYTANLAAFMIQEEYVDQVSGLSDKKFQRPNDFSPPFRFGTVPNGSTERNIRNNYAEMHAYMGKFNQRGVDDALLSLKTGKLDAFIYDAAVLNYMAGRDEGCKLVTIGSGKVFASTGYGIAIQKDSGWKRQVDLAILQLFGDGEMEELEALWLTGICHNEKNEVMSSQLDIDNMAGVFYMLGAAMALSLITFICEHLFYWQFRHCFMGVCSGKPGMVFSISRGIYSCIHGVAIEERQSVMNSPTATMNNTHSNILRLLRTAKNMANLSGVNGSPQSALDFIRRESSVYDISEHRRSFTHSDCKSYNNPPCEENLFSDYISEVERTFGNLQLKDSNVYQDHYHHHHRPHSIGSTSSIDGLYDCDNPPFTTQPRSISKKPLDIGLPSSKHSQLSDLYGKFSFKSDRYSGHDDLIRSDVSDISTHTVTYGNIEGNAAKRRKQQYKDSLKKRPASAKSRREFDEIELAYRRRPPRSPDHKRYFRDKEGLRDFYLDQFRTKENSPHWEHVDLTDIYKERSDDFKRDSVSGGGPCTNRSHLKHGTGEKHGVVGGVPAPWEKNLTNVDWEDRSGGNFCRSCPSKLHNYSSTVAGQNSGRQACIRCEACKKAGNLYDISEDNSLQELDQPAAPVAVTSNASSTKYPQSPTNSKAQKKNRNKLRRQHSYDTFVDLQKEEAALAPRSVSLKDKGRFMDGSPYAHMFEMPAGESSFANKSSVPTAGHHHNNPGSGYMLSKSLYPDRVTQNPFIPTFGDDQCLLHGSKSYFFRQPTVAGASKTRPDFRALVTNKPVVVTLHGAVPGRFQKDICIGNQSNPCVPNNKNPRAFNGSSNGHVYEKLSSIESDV

The target in series [4] is Glutamate receptor ionotropic, NMDA 2B (Mus musculus) (UniProt Q01097). As to the kind of experiment: Antagonist activity at NMDA receptor GluN2B subunit in FVB mouse CA1 pyramidal neurons assessed as decrease in EPSC amplitude at holding potential of -60 mV at 100 nM measured at 5 mins by patch clamp electrophysiological assay in presence of Mg2+ free ACSF containing CNQX, glycine, bicuculline relative to control. Format: functional, cell-based. Also noted: scale not given: the % may be the effect or the level left. To be noted: Pyramidal neuron.
Glutamate receptor ionotropic, NMDA 2B (Mus musculus), sequence (Q01097 whole entry): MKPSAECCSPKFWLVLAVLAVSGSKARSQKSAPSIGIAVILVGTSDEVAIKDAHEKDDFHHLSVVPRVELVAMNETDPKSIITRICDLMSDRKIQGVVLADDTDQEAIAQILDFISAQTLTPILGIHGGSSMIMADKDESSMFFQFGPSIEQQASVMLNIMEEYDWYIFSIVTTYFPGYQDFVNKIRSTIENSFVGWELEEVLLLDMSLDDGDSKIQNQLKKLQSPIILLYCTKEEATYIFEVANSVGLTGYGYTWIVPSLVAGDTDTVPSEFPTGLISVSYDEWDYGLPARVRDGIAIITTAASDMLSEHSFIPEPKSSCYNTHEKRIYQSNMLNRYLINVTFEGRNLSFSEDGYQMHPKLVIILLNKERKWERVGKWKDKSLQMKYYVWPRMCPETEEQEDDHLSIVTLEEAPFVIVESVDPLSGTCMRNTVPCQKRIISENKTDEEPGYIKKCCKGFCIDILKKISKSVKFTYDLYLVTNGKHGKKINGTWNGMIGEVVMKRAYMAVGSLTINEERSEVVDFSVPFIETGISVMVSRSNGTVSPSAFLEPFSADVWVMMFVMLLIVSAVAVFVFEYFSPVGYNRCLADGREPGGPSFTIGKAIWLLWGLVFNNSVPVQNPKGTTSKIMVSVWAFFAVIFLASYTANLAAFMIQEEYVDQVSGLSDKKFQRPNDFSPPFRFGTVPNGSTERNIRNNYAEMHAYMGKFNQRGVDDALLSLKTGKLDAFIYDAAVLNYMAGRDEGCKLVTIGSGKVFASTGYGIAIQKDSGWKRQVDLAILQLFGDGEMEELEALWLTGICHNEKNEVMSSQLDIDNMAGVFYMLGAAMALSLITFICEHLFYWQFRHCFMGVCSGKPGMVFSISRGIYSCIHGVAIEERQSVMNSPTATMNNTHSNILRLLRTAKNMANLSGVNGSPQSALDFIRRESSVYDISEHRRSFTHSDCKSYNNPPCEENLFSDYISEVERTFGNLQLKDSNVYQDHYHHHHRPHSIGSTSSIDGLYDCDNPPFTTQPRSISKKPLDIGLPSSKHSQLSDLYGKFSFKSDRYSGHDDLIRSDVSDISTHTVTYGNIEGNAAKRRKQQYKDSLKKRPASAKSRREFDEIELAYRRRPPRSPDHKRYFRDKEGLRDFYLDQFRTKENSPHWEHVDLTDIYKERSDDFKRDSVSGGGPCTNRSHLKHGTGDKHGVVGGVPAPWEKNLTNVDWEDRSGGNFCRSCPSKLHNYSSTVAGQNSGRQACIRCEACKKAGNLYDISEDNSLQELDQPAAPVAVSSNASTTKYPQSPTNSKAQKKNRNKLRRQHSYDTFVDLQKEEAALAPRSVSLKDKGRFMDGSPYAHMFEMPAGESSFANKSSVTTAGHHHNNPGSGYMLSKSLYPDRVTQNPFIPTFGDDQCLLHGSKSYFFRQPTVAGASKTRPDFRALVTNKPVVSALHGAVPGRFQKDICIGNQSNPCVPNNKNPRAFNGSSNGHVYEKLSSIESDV

The target of series [5] is Glutamate receptor ionotropic, NMDA 2B (Rattus norvegicus) (UniProt Q00960). The series can be described thus: Displacement of [3H]ifenprodil from NMDA receptor GluN2B subunit in Wistar rat cerebral cortex at 10 uM after 120 mins. The series is classed as tissue-based.
Series [6] addresses Glutamate NMDA receptor; Grin1/Grin2b (Rattus norvegicus, UniProt P35439+Q00960). The series can be described thus: Inhibition of rat NMDA receptor NR1F/NR2B subunit expressed in Xenopus laevis oocytes after 2 days by two-electrode voltage-clamp electrophysiological assay. The series is classed as cell-based, Oocyte. (In general: Two-electrode voltage clamp holds a large cell at a set potential and records current.)

Series [7] has as its target Glutamate receptor ionotropic, NMDA 2B (Mus musculus) (UniProt Q01097). The series can be described thus: Antagonist activity at NMDA receptor GluN2B subunit in FVB mouse CA1 pyramidal neurons assessed as decrease in EPSC amplitude at holding potential of -60 mV at 6 uM measured at 5 mins by patch clamp electrophysiological assay in presence of Mg2+ free ACSF containing CNQX, glycine, bicuculline relative to control. Format: functional, cell-based. Also noted: scale not given: the % may be the effect or the level left. To be noted: Pyramidal neuron.

Series [8] shares this target. As to the kind of experiment: Antagonist activity at NMDA receptor GluN2B subunit in FVB mouse CA1 pyramidal neurons assessed as decrease in EPSC amplitude at holding potential of -60 mV at 50 uM measured at 5 mins by patch clamp electrophysiological assay in presence of Mg2+ free ACSF containing CNQX, glycine, bicuculline relative to control. Set-up: scale not given: the % may be the effect or the level left. Format: functional, cell-based. To be noted: Pyramidal neuron.

The values below come from ChEMBL document CHEMBL2176878, “Synthesis and biological characterization of 3-substituted 1H-indoles as ligands of GluN2B-containing N-methyl-D-aspartate receptors. Part 2” (J Med Chem, 2012).

For orientation: pKa means the negative logarithm of the acid dissociation constant. The term IC50 denotes the midpoint of a concentration-inhibition curve. The inhibition is the relative decrease from the control value, in per cent.

Glutamate receptor ionotropic, NMDA 2B, sequence (Q00960 whole entry): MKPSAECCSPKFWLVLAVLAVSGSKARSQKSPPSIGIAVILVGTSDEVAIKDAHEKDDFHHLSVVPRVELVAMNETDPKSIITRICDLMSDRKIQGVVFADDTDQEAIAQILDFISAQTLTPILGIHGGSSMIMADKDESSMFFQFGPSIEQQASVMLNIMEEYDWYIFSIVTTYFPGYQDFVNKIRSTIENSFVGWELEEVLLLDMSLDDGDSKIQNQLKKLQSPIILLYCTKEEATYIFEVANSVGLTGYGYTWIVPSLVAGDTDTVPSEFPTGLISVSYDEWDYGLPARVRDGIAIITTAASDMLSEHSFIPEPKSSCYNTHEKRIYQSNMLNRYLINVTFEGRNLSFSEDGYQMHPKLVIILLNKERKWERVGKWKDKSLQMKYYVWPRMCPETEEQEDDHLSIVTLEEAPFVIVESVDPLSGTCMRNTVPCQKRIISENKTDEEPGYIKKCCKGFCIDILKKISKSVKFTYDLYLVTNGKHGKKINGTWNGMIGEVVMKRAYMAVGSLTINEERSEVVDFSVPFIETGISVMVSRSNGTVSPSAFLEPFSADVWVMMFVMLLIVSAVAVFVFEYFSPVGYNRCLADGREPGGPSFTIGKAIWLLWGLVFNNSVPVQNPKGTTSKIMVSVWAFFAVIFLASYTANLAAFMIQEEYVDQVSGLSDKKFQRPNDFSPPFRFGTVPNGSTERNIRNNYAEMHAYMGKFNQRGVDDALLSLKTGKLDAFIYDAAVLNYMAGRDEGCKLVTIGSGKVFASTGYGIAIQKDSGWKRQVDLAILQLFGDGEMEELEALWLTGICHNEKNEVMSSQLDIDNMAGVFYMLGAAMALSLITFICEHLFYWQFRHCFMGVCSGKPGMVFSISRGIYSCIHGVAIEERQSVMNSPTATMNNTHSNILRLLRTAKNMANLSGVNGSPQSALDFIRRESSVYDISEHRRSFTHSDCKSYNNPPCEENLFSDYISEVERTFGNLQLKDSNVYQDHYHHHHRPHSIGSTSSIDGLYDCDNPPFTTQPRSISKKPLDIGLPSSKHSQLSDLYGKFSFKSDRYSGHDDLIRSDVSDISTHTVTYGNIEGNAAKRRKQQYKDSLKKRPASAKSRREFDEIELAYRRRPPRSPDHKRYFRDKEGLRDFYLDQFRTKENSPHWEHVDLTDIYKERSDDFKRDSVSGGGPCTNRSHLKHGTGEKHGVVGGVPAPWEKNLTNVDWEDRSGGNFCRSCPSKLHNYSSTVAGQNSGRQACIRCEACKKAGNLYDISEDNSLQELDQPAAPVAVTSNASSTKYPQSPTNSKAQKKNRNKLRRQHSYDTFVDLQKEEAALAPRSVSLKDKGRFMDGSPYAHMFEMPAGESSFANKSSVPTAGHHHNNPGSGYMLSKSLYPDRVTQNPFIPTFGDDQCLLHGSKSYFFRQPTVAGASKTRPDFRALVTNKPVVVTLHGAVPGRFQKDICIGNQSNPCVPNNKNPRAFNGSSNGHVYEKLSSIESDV

`O=C(CN1CCC(Cc2ccccc2)CC1)c1c[nH]c2cc(O)ccc12` displayed a pKa in series [1] of 9.63.
With `Nc1ccc2c(C(=O)CN3CCC(Cc4ccccc4)CC3)c[nH]c2c1`, the IC50 in series [2] came out at 2270 nM.
For the compound `CS(=O)(=O)Nc1ccc2c(C(=O)CN3CCC(Cc4ccccc4)CC3)c[nH]c2c1`, in series [1], the pKa came to 9.97. Moreover, the results for the Activity in series [3] and in series [4] were 50% and 23.3%, respectively. In series [2], this compound registered an IC50 of 8.9 nM.
In turn, `CS(=O)(=O)Nc1ccc2[nH]cc(C(=O)C(=O)N3CCC(Cc4ccccc4)CC3)c2c1` registered an inhibition in series [5] of 42%.
Compound `CS(=O)(=O)Nc1ccc2[nH]cc(C(=O)CN3CCC(Cc4ccccc4)CC3)c2c1` gave an IC50 in series [2] of 320 nM.
For the compound `CS(=O)(=O)Nc1ccc2c(C(=O)C(=O)N3CCC(Cc4ccccc4)CC3)c[nH]c2c1`, in series [2], the IC50 was 63 nM.
The compound `Nc1ccc2c(C(=O)C(=O)N3CCC(Cc4ccccc4)CC3)c[nH]c2c1` came in with an inhibition in series [5] of 32%.
As to `Nc1ccc2[nH]cc(C(=O)CN3CCC(Cc4ccccc4)CC3)c2c1`, the IC50 in series [2] amounted to 1180 nM.
Regarding `C[C@@H](CN1CCC(Cc2ccccc2)CC1)[C@@H](O)c1ccc(O)cc1`, in series [6], the IC50 is 17 nM. For the same compound, in series [7], the Activity worked out at 29%.
For `N[C@H](CCCP(=O)(O)O)C(=O)O`, the Activity in series [8] came out at 28%.
`Nc1ccc2[nH]cc(C(=O)C(=O)N3CCC(Cc4ccccc4)CC3)c2c1` had an inhibition in series [5] of 40%.
